{"source": "paper PMC6440482", "about": "(European journal of pharmacology, 2018)", "key": {"[1]": {"molecular_target": "T1, hOCT2 (Homo sapiens, UniProt O15244)", "T1 sequence (O15244 1-555)": "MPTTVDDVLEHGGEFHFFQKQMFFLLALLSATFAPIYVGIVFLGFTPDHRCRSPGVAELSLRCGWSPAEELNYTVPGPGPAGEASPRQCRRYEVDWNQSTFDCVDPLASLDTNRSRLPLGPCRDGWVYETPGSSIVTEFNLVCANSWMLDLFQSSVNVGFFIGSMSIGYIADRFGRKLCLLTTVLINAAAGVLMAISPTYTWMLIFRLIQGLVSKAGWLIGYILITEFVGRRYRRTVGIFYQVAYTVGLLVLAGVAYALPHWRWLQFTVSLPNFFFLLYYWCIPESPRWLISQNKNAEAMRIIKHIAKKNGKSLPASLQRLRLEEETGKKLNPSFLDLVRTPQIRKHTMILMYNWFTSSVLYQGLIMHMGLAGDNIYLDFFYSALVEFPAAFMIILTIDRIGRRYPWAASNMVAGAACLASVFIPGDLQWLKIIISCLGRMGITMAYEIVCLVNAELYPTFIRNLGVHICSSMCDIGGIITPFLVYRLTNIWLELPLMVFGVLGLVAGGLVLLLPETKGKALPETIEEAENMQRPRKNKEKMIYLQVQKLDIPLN", "test": "[3H]MPP+ uptake competition in stable hOCT2-HEK cells", "type": "cell-based", "conditions": "10 min room temperature"}, "[2]": {"molecular_target": "T2, hOCT3 (Homo sapiens, UniProt O75751)", "T2 sequence (O75751 1-556)": "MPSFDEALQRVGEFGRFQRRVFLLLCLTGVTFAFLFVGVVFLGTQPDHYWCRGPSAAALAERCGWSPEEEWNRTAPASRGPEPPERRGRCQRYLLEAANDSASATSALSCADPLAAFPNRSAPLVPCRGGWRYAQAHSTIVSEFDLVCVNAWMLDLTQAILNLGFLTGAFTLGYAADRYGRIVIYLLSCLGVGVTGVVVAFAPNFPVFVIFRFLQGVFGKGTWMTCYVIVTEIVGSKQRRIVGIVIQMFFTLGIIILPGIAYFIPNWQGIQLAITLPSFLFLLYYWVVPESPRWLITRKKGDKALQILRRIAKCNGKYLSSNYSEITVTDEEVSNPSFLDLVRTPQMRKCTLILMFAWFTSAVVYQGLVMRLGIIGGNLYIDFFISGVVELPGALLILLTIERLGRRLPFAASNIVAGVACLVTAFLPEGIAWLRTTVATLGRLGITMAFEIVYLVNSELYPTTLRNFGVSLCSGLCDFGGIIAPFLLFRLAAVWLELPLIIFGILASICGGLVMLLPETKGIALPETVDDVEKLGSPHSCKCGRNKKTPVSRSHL", "test": "[3H]MPP+ uptake competition in stable hOCT3-HEK cells", "type": "cell-based", "conditions": "10 min room temperature"}, "[3]": {"molecular_target": "T3, hPMAT (Homo sapiens, UniProt Q7RTT9)", "T3 sequence (Q7RTT9 1-530)": "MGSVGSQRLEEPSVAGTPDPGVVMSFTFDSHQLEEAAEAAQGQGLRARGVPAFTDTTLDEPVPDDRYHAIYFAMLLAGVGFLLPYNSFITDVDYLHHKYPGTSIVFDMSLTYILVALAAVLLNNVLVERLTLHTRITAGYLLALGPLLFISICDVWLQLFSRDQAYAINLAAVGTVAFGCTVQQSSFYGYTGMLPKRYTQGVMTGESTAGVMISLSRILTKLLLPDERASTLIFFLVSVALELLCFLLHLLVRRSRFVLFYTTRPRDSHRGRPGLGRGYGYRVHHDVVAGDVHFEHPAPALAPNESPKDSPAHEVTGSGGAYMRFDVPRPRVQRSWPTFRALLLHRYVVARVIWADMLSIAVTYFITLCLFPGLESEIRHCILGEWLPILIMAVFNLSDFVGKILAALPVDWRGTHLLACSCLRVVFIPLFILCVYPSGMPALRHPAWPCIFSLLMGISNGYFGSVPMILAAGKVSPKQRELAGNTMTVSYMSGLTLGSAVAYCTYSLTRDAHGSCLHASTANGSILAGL", "test": "[3H]MPP+ uptake competition in stable hPMAT-HEK cells", "type": "cell-based"}, "[4]": {"molecular_target": "DAT (Mus musculus, UniProt Q61327)", "sequence (Q61327 whole entry)": "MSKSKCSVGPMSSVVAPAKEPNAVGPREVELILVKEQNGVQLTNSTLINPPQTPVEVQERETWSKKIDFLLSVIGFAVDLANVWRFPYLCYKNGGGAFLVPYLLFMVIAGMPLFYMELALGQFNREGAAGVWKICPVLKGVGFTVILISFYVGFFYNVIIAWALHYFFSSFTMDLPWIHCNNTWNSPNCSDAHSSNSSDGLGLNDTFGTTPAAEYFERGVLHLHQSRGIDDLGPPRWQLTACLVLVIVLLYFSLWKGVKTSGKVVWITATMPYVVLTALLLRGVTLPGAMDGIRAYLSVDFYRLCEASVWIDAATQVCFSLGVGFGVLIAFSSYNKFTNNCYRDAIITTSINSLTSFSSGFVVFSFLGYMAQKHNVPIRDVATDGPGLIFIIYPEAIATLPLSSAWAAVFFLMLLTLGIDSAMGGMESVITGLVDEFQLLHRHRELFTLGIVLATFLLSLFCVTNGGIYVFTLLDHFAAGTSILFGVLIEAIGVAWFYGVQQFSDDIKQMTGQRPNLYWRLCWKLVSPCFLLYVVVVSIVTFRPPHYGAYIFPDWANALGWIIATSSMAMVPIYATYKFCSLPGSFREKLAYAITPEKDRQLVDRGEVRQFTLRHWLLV", "test": "[3H]WIN 35428 binding displacement in mouse striatum homogenate"}, "[5]": {"molecular_target": "mDAT (Mus musculus, UniProt Q61327)", "sequence (Q61327 whole entry)": "as above", "test": "[3H]MPP+ uptake inhibition in transiently transfected mDAT-HEK cells", "type": "cell-based"}, "[6]": {"molecular_target": "mNET (Mus musculus, UniProt O55192)", "sequence (O55192 whole entry)": "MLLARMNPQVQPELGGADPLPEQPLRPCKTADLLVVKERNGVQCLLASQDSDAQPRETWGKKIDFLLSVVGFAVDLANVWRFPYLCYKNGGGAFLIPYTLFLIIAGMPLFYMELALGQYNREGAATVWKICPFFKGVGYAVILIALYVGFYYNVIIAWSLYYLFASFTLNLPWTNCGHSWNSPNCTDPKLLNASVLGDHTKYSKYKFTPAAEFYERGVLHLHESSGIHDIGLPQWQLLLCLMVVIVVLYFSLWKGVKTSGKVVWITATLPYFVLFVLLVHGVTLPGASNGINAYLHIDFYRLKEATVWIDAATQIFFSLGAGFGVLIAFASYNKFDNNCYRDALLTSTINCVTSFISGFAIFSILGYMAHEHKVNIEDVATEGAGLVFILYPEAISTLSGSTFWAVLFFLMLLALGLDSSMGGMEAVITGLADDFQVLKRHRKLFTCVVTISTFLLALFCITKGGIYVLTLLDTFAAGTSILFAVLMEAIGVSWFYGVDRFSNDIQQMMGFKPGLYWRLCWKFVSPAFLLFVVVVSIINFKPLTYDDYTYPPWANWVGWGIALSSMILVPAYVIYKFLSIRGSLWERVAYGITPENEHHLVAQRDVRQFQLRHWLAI", "test": "[3H]MPP+ uptake inhibition in transiently transfected mNET-HEK cells", "type": "cell-based"}, "[7]": {"molecular_target": "mSERT (Mus musculus, UniProt Q60857)", "sequence (Q60857 whole entry)": "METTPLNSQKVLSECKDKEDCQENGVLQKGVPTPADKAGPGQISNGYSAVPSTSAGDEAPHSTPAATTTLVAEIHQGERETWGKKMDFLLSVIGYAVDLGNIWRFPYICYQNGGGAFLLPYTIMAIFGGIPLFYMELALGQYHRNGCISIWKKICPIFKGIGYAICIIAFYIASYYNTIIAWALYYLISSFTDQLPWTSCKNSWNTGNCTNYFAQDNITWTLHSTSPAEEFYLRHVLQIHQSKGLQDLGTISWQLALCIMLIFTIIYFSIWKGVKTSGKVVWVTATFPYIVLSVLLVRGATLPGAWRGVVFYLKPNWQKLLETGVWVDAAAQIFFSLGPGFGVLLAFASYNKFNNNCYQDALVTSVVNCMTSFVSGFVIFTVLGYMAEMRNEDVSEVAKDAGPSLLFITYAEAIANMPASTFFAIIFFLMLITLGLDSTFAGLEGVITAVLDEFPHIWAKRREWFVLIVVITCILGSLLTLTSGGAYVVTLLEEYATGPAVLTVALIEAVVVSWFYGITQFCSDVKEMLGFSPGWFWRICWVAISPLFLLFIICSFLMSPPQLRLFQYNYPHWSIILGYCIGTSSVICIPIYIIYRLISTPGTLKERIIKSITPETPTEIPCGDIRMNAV", "test": "[3H]5-HT uptake inhibition in transiently transfected mSERT-HEK cells", "type": "cell-based"}, "[8]": {"conditions": "read-out: hOCT2-HEK IC50, 10 nM [3H]MPP+ uptake"}, "[9]": {"conditions": "read-out: hOCT3-HEK IC50, 10 nM [3H]MPP+ uptake"}, "[10]": {"conditions": "read-out: hPMAT-HEK IC50, 10 nM [3H]MPP+ uptake, 10 min room temperature"}, "[11]": {"conditions": "read-out: DAT [3H]WIN 35428 IC50, mouse striatum homogenate, 4 nM [3H]WIN 35428, 60 min"}}, "note": "Several values for one entry are separate records, joined by “and”; a condition that tells them apart may be missing. Equal entries are not always repeated. Where two headings read alike, the source gives them in different places."}
{"smiles": "C[n+]1ccc(-c2ccccc2)cc1", "note": "[MPP^+, 1-methyl-4-phenylpyridinium]", "values": [{"measurement": "IC50", "setting": "[1]; [8]", "value": 110, "unit": "µM"}, {"measurement": "IC50", "setting": "[2]; [9]", "value": 91, "unit": "µM"}, {"measurement": "IC50", "setting": "[3]; [10]", "value": 1040, "unit": "µM"}]}
{"smiles": "CCN1C(=Cc2ccc3ccccc3[n+]2CC)C=Cc2ccccc21", "note": "[Decynium 22, 1,1’-diethyl-2,2’-cyanine]", "values": [{"measurement": "IC50", "setting": "[4]; [11]", "value": 10.8, "unit": "µM"}, {"measurement": "IC50", "setting": "[5]; read-out: mDAT-HEK IC50, 20 nM [3H]MPP+ uptake, 3 min", "value": 12.9, "unit": "µM"}, {"measurement": "IC50", "setting": "[6]; read-out: mNET-HEK IC50, 20 nM [3H]MPP+ uptake, 3 min", "value": 35, "unit": "µM"}, {"measurement": "IC50", "setting": "[7]; read-out: mSERT-HEK IC50, 100 nM [3H]5-HT uptake, 1 min", "value": 7.9, "unit": "µM"}, {"measurement": "IC50", "setting": "[7]; read-out: mSERT-HEK IC50, 100 nM [3H]5-HT uptake, 1 min, listed as D22", "value": 8, "unit": "µM"}, {"measurement": "IC50", "setting": "[1]; [8]", "value": 10, "unit": "µM"}, {"measurement": "IC50", "setting": "[2]; [9]", "value": 0.2, "unit": "µM"}, {"measurement": "IC50", "setting": "[3]; [10]", "value": 1.1, "unit": "µM"}]}
{"smiles": "COC(=O)[C@H]1[C@@H](c2ccc(F)cc2)C[C@@H]2CC[C@H]1N2C", "note": "[WIN 35428]", "values": [{"measurement": "IC50", "setting": "[4]; [11]", "value": 0.06, "unit": "µM"}]}
{"smiles": "C[C@]12C[C@H](O)[C@H]3[C@@H](CCC4=CC(=O)CC[C@@]43C)[C@@H]1CC[C@@H]2C(=O)CO", "note": "[Corticosterone]", "values": [{"measurement": "IC50", "setting": "[5]", "value": "364 µM and 365 µM"}, {"measurement": "IC50", "setting": "[6]", "value": 840, "unit": "µM"}, {"measurement": "IC50", "setting": "[7]", "value": 445, "unit": "µM"}, {"measurement": "IC50", "setting": "[1]; hOCT2-HEK IC50, 10 nM [3H]MPP+ uptake", "value": 79.6, "unit": "µM"}, {"measurement": "IC50", "setting": "[2]; hOCT3-HEK IC50, 10 nM [3H]MPP+ uptake", "value": "0.6 µM and 0.62 µM"}, {"measurement": "IC50", "setting": "[3]", "value": 1060, "unit": "µM"}]}
{"smiles": "COC(=O)[C@H]1[C@@H](OC(=O)c2ccccc2)C[C@@H]2CC[C@H]1N2C", "note": "[Cocaine]", "values": [{"measurement": "IC50", "setting": "[5]; mDAT-HEK IC50, 20 nM [3H]MPP+ uptake, 3 min", "value": 0.18, "unit": "µM"}, {"measurement": "IC50", "setting": "[6]; mNET-HEK IC50, 20 nM [3H]MPP+ uptake, 3 min", "value": "1.2 µM and 1.18 µM"}, {"measurement": "IC50", "setting": "[7]; mSERT-HEK IC50, 100 nM [3H]5-HT uptake, 1 min", "value": "0.5 µM and 0.51 µM"}]}
{"smiles": "NCCc1ccc(O)c(O)c1", "note": "[Dopamine]", "values": [{"measurement": "IC50", "setting": "[4]", "value": 99.8, "unit": "µM"}]}
